± gives the expanded uncertainty stated by the source.
Columns and labels:
[1] = Molar enthalpy of transition or fusion; details: Crystal; DSC
[2] = Crystal; DTA

Molar enthalpy of transition or fusion [1]: 6.4 ± 0.206 kcal/mol | Normal melting temperature [2]: 121.68 ± 0.43 °C
SMILES: Cc1ccc(NC(=O)C(C)Cl)cc1 (configuration not stated) [2-chloro-N-(4-methylphenyl)propanamide]

— the NIST ThermoML archive (doi:10.1021/acs.jced.7b00288)
